Reference: patent US12336981B2, “Compounds and compositions for the inhibition of NAMPT” (Valo Health, Inc., priority 2010, dated 2025)
pIC50: −log10 of the molar value. Where two headings read alike, the source gives them in different places.

Assays:
NAMPT = biological target: T1, NAMPT (Homo sapiens, UniProt P43490); assay: Biochemical inhibition assay: NAMPT enzymatic reaction, NMN quantified by mass spectrometry; conditions: read-out: Biochem IC50
T1 construct: His tag; host or cells: E. coli
Summary of the method: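 Inhibition of E. coli-expressed His-tagged human NAMPT, measured as NMN formation by mass spectrometry after a 30 min room-temperature reaction containing 1 μM NAM, 100 μM PRPP and 2.5 mM ATP.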

A2780 cells = assay: In-vitro cell proliferation assay (SRB), A2780 cells; assay type: cell-based; conditions: Homo sapiens, A2780, 72 h, A2780 cells, 72 hours, read-out: A2780 IC50
Summary of the method: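 Read-out is SRB absorbance at 570 nm on TCA-fixed cells after 72 hours of compound treatment at 37° C. in 5% CO2. Background from a media-only plate is subtracted, and % inhibition is interpolated between two tested concentrations.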

T1 sequence (P43490 whole entry): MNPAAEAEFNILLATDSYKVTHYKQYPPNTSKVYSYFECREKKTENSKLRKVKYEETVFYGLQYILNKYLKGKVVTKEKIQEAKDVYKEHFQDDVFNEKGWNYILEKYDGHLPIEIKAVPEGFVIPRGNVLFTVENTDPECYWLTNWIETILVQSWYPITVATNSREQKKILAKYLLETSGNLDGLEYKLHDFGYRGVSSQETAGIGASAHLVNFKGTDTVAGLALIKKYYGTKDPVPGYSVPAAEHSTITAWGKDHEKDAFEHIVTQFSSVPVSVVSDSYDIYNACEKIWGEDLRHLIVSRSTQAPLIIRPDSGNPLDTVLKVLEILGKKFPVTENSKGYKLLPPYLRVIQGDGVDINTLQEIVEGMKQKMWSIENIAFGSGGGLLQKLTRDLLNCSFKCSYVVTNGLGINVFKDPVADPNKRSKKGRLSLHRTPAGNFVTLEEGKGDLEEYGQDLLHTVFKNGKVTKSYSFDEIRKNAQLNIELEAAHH

SMILES	pIC50 (NAMPT; NAMPT enzymatic assay)	pIC50 (A2780 cells; SRB)	pIC50 (NAMPT; NAMPT enzymatic reaction)	pIC50 (A2780 cells; SRB assay)
CN(C)c1ccc(S(=O)(=O)c2ccc(CNC(=O)c3cc4ccncc4s3)cc2)cn1 [N-({4-[6-(dimethylamino)pyridine-3-sulfonyl]phenyl}methyl)thieno[2,3-c]pyridine-2-carboxamide]	9.00	9.22	–	–
O=C(NCc1ccc(CCS(=O)(=O)c2ccccc2)cc1)c1cc2cnccc2[nH]1 [N-({4-[2-(benzenesulfonyl)ethyl]phenyl}methyl)-1H-pyrrolo[3,2-c]pyridine-2-carboxamide]	7.64	6.78	–	–
O=C(NCc1ccc(S(=O)(=O)c2ccc(-c3ccccc3)cc2)cc1)c1ccc2ncsc2c1 [N-({4-[(4-phenylbenzene)sulfonyl]phenyl}methyl)-1,3-benzothiazole-6-carboxamide]	–	6.00 to 7.00	7.68	–
CCOc1cccc(S(=O)(=O)c2ccc(CNC(=O)c3cc4ccncc4o3)cc2)c1F	–	7.64	7.76	–
CCOc1ccc(S(=O)(=O)c2ccc(CNC(=O)c3cc4ccncc4s3)cc2)c(C)c1	–	7.88	8.92	–
O=C(NCc1ccc(S(=O)(=O)c2ccc(OCC(F)(F)F)c(F)c2)cc1)c1ccc2nccn2c1	7.82	8.10	–	–
COc1cc(S(=O)(=O)c2ccc(CNC(=O)c3cnc4[nH]ncc4c3)cc2)ccc1C [N-({4-[(3-methoxy-4-methylbenzene)sulfonyl]phenyl}methyl)-1H-pyrazolo[3,4-b]pyridine-5-carboxamide]	–	8.47	8.44	–
Cc1ccc(F)cc1S(=O)(=O)c1ccc(CNC(=O)c2cc3cnccc3[nH]2)cc1 [N-({4-[(5-fluoro-2-methylbenzene)sulfonyl]phenyl}methyl)-1H-pyrrolo[3,2-c]pyridine-2-carboxamide]	–	–	7.96	8.15
O=C(NCc1ccc(S(=O)(=O)c2ccc(-n3cccn3)cc2F)cc1)c1cnc2[nH]ncc2c1	7.41	7.46	–	–
COc1ccc(S(=O)(=O)c2ccc(CNC(=O)c3cc4cnccc4[nH]3)cc2)c(OC)c1 [N-({4-[(2,4-dimethoxybenzene)sulfonyl]phenyl}methyl)-1H-pyrrolo[3,2-c]pyridine-2-carboxamide]	7.57	8.15	–	–
Cc1nc(C)c(S(=O)(=O)c2ccc(CNC(=O)c3cnc4nccn4c3)cc2)s1 [N-{[4-(dimethyl-1,3-thiazole-5-sulfonyl)phenyl]methyl}imidazo[1,2-a]pyrimidine-6-carboxamide]	8.43	7.31	–	–
Cc1cc(C(F)(F)F)ccc1S(=O)(=O)c1ccc(CNC(=O)c2ccc3nccn3c2)cc1	7.61	7.78	–	–
Cc1ccc(S(=O)(=O)c2ccc(CNC(=O)c3cc4ccncc4o3)cc2)cc1C	–	8.52	7.82	–
O=C(NCc1ccc(S(=O)(=O)c2ccc(F)cc2Cl)cc1)c1cnc2nccn2c1	–	6.00 to 7.00	7.84	–
O=C(NCc1ccc(S(=O)(=O)c2ccccc2)cc1)c1ccc2cnccc2c1 [N-{[4-(benzenesulfonyl)phenyl]methyl}isoquinoline-6-carboxamide]	–	–	4.79	4.67
COc1ccc(S(=O)(=O)c2ccc(CNC(=O)c3cc4ccncc4s3)cc2)nc1 [N-{[4-(5-methoxypyridine-2-sulfonyl)phenyl]methyl}thieno[2,3-c]pyridine-2-carboxamide]	8.15	7.71	–	–
COc1cc(C)c(S(=O)(=O)c2ccc(CNC(=O)c3cnc4[nH]ncc4c3)cc2)cc1C [N-({4-[(4-methoxy-2,5-dimethylbenzene)sulfonyl]phenyl}methyl)-1H-pyrazolo[3,4-b]pyridine-5-carboxamide]	–	7.63	7.43	–
COc1ccc(S(=O)(=O)c2ccc(CNC(=O)c3cc4cnccc4[nH]3)cc2)cc1OC [N-({4-[(3,4-dimethoxybenzene)sulfonyl]phenyl}methyl)-1H-pyrrolo[3,2-c]pyridine-2-carboxamide]	–	–	7.85	8.52
O=C(NCc1ccc(S(=O)(=O)c2cc(C(F)(F)F)ccn2)cc1)c1cnc2[nH]ncc2c1 [N-({4-[4-(trifluoromethyl)pyridine-2-sulfonyl]phenyl}methyl)-1H-pyrazolo[3,4-b]pyridine-5-carboxamide]	7.55	7.93	–	–
CCOc1cccc(S(=O)(=O)c2ccc(CNC(=O)c3cc4ccncc4s3)cc2)c1F	–	7.89	8.43	–
COc1cc(S(=O)(=O)c2ccc(CNC(=O)c3cc4ccncc4o3)cc2)ccc1Cl [N-({4-[(4-chloro-3-methoxybenzene)sulfonyl]phenyl}methyl)furo[2,3-c]pyridine-2-carboxamide]	–	8.22	8.23	–
COc1ccc(Cl)cc1S(=O)(=O)c1ccc(CNC(=O)c2cc3cnccc3[nH]2)cc1 [N-({4-[(5-chloro-2-methoxybenzene)sulfonyl]phenyl}methyl)-1H-pyrrolo[3,2-c]pyridine-2-carboxamide]	–	–	8.22	8.70
O=C(NCc1ccc(S(=O)(=O)Cc2ccccc2)cc1)c1cc2cnccc2[nH]1 [N-{[4-(phenylmethane)sulfonylphenyl]methyl}-1H-pyrrolo[3,2-c]pyridine-2-carboxamide]	–	–	7.54	6.52
COc1ccc(S(=O)(=O)c2ccc(CNC(=O)c3cc4cnccc4[nH]3)cc2)c(Cl)c1	–	7.84	8.03	–

SMILES	pIC50 (NAMPT; NAMPT enzymatic assay)	pIC50 (A2780 cells; SRB)	pIC50 (NAMPT; NAMPT enzymatic reaction)	pIC50 (A2780 cells; SRB assay)
Cc1ccc(S(=O)(=O)c2ccc(CNC(=O)c3cnc4nccn4c3)cc2)cc1Cl	–	8.92	8.74	–
Cc1cc(C)n(-c2cccc(S(=O)(=O)c3ccc(CNC(=O)c4cc5cc(O)ccc5[nH]4)cc3)c2)n1	6.00 to 7.00	6.00 to 7.00	–	–
Cc1cc(C)c(S(=O)(=O)c2ccc(CNC(=O)c3cc4ccncc4s3)cc2)cc1C [N-({4-[(2,4,5-trimethylbenzene)sulfonyl]phenyl}methyl)thieno[2,3-c]pyridine-2-carboxamide]	8.10	8.09	–	–
O=C(NCc1ccc(S(=O)(=O)c2ccccc2CN2CCOCC2)cc1)c1cnc2nccn2c1	7.84	6.00 to 7.00	–	–
O=C(NCc1ccc(S(=O)(=O)c2cccc(-c3ccccc3)c2)cc1)c1cc2ccncc2o1 [N-({4-[(3-phenylbenzene)sulfonyl]phenyl}methyl)furo[2,3-c]pyridine-2-carboxamide]	–	7.63	7.86	–
O=C(NCc1ccc(S(=O)(=O)c2cc(O)ccc2OC(F)(F)F)cc1)c1cc2ccncc2o1	8.19	7.94	–	–
CCc1ccc(S(=O)(=O)c2ccc(CNC(=O)c3cc4ccncc4s3)cc2)cc1 [N-({4-[(4-ethylbenzene)sulfonyl]phenyl}methyl)thieno[2,3-c]pyridine-2-carboxamide]	–	–	8.22	8.11
Cc1nc(C)c(S(=O)(=O)c2ccc(CNC(=O)c3cc4ccncc4o3)cc2)s1 [N-{[4-(dimethyl-1,3-thiazole-5-sulfonyl)phenyl]methyl}furo[2,3-c]pyridine-2-carboxamide]	8.08	7.99	–	–
N#Cc1ccccc1S(=O)(=O)c1ccc(CNC(=O)c2ccc3nccn3c2)cc1	–	7.21	7.81	–
O=C(NCc1ccc(S(=O)(=O)c2ccccc2)cc1)c1cc(-c2ccncc2)n[nH]1 [N-{[4-(benzenesulfonyl)phenyl]methyl}-3-(pyridin-4-yl)-1H-pyrazole-5-carboxamide]	–	–	5.50	4.67
O=C(NCc1ccc(S(=O)(=O)c2ccccc2)cc1)c1ccc2ncccc2n1 [N-{[4-(benzenesulfonyl)phenyl]methyl}-1,5-naphthyridine-2-carboxamide]	–	–	6.06	< 5.00
CCOc1ccc(S(=O)(=O)c2ccc(CNC(=O)c3cnc4[nH]ncc4c3)cc2)cc1	–	8.08	7.82	–
O=C(NCc1ccc(S(=O)(=O)c2ccc3ncccc3c2)cc1)c1cc2ccncc2o1 [N-{[4-(quinoline-6-sulfonyl)phenyl]methyl}furo[2,3-c]pyridine-2-carboxamide]	8.14	8.30	–	–
CC(C)Oc1cccc(S(=O)(=O)c2ccc(CNC(=O)c3cnc4[nH]ncc4c3)cc2)c1	7.34	7.61	–	–
CC(C)CNC(=O)c1cccc(S(=O)(=O)c2ccc(CNC(=O)c3cc4cnccc4[nH]3)cc2)c1	7.71	7.34	–	–
COc1cc(C)cc(S(=O)(=O)c2ccc(CNC(=O)c3cc4ccncc4o3)cc2)c1OC	–	8.15	7.82	–
O=C(NCc1ccc(S(=O)(=O)c2cccc(F)c2Cl)cc1)c1cnc2[nH]ncc2c1	–	6.00 to 7.00	7.13	–
Cc1ccc(S(=O)(=O)c2ccc(CNC(=O)c3cnc4nccn4c3)cc2)cc1	–	7.71	8.37	–
O=C(NCc1ccc(S(=O)(=O)c2ccc(C(F)(F)F)cn2)cc1)c1cc2ccncc2s1 [N-({4-[5-(trifluoromethyl)pyridine-2-sulfonyl]phenyl}methyl)thieno[2,3-c]pyridine-2-carboxamide]	7.63	6.00 to 7.00	–	–
CC(C)Oc1ccccc1NS(=O)(=O)c1ccc(CNC(=O)c2cc3cnccc3[nH]2)cc1 [N-[(4-{[2-(propan-2-yloxy)phenyl]sulfamoyl}phenyl)methyl]-1H-pyrrolo[3,2-c]pyridine-2-carboxamide]	–	–	8.52	9.00
Cc1c(Cl)cccc1S(=O)(=O)c1ccc(CNC(=O)c2cc3ccncc3o2)cc1	–	8.80	8.59	–
CS(=O)(=O)c1ccc(S(=O)(=O)c2ccc(CNC(=O)c3ccc4nccn4c3)cc2)cc1 [N-({4-[(4-methanesulfonylbenzene)sulfonyl]phenyl}methyl)imidazo[1,2-a]pyridine-6-carboxamide]	–	7.61	6.98	–
CNC(=O)c1cccc(S(=O)(=O)c2ccc(CNC(=O)c3cc4ccncc4o3)cc2)c1	8.09	7.84	–	–
